# Entries after “also recorded” stand apart in the source; their conditions may differ.
# Tests used:
# tremor = assay: Tremor caused by alaproclate per se; type: in vivo, mice; conditions: in words
# Description: Saline was administered as a blank. The tremor intensity was assessed visually for a 60 min period starting from the injection of oxotremorine and physostigmine respectively.
# [1] = system: oxotremorine induced tremor; assay: Potentiation of oxotremorine induced tremor; type: in vivo; conditions: mice; for Mean tremor score after pretreatment: score 0-2
# Description: (§1) Saline was administered as a blank. The tremor intensity was assessed visually for a 60 min period starting from the injection of oxotremorine and physostigmine respectively. The following rating scores were used:
# (§2) 1--moderate or discontinuous tremor of the head and forelimbs
# (§3) 2--strong tremor involving the whole body
# [2] = system: physostigmine induced tremor; assay: Potentiation of physostigmine induced tremor; type: in vivo; conditions: mice; for Mean tremor score after pretreatment: score 0-2
# Description: as §1, §2, §3
compound,measurement,setting,value
"CC(N)C(=O)OC(C)(C)Cc1ccc(Cl)cc1 (stereo not drawn) [Alaproclate, 2-(4-chloro-phenyl)-1,1-dimethylethyl-2-aminopropanoate]",Tremor caused by the compound per se,tremor,does not cause tremor
same,Potentiation of oxotremorine induced tremor,[1]; in words,able to enhance; also recorded: potentiates
same,Mean tremor score after pretreatment,"[1]; alaproclate 20 mg/kg i.p., 10 min after oxotremorine 100 μg/kg s.c.","0,7"
same,Mean tremor score after pretreatment,"[1]; alaproclate 20 mg/kg i.p., 15 min after oxotremorine 100 μg/kg s.c.","1,0"
same,Mean tremor score after pretreatment,"[1]; alaproclate 20 mg/kg i.p., 30 min after oxotremorine 100 μg/kg s.c.","0,8"
same,Mean tremor score after pretreatment,"[1]; alaproclate 40 mg/kg i.p., 5 min after oxotremorine 100 μg/kg s.c.","0,3"
same,Mean tremor score after pretreatment,"[1]; alaproclate 40 mg/kg i.p., 10 min after oxotremorine 100 μg/kg s.c.","1,0"
same,Mean tremor score after pretreatment,"[1]; alaproclate 40 mg/kg i.p., 15 min after oxotremorine 100 μg/kg s.c.","1,3"
same,Mean tremor score after pretreatment,"[1]; alaproclate 40 mg/kg i.p., 30 min after oxotremorine 100 μg/kg s.c.","1,2"
same,Mean tremor score after pretreatment,"[1]; alaproclate 40 mg/kg i.p., 60 min after oxotremorine 100 μg/kg s.c.","0,5"
same,Mean tremor score after pretreatment,"[1]; alaproclate 60 mg/kg i.p., 5 min after oxotremorine 100 μg/kg s.c.","0,1"
same,Mean tremor score after pretreatment,"[1]; alaproclate 60 mg/kg i.p., 10 min after oxotremorine 100 μg/kg s.c.","1,0"
same,Mean tremor score after pretreatment,"[1]; alaproclate 60 mg/kg i.p., 15 min after oxotremorine 100 μg/kg s.c.","1,5"
same,Mean tremor score after pretreatment,"[1]; alaproclate 60 mg/kg i.p., 30 min after oxotremorine 100 μg/kg s.c.","1,6"
same,Mean tremor score after pretreatment,"[1]; alaproclate 60 mg/kg i.p., 60 min after oxotremorine 100 μg/kg s.c.","1,0"
same,Potentiation of physostigmine induced tremor,[2]; in words,able to enhance; also recorded: potentiates
same,Mean tremor score after pretreatment,"[2]; alaproclate 20 mg/kg i.p., 5 min after physostigmine 200 μg/kg s.c.","0,3"
same,Mean tremor score after pretreatment,"[2]; alaproclate 20 mg/kg i.p., 10 min after physostigmine 200 μg/kg s.c.","0,8"
same,Mean tremor score after pretreatment,"[2]; alaproclate 20 mg/kg i.p., 15 min after physostigmine 200 μg/kg s.c.","0,8"
same,Mean tremor score after pretreatment,"[2]; alaproclate 40 mg/kg i.p., 5 min after physostigmine 200 μg/kg s.c.","0,3"
same,Mean tremor score after pretreatment,"[2]; alaproclate 40 mg/kg i.p., 10 min after physostigmine 200 μg/kg s.c.","1,0"
same,Mean tremor score after pretreatment,"[2]; alaproclate 40 mg/kg i.p., 15 min after physostigmine 200 μg/kg s.c.","0,7"
same,Mean tremor score after pretreatment,"[2]; alaproclate 40 mg/kg i.p., 30 min after physostigmine 200 μg/kg s.c.","0,3"
same,Mean tremor score after pretreatment,"[2]; alaproclate 60 mg/kg i.p., 5 min after physostigmine 200 μg/kg s.c.","0,7"
same,Mean tremor score after pretreatment,"[2]; alaproclate 60 mg/kg i.p., 10 min after physostigmine 200 μg/kg s.c.","1,3"
same,Mean tremor score after pretreatment,"[2]; alaproclate 60 mg/kg i.p., 15 min after physostigmine 200 μg/kg s.c.","0,8"
same,Mean tremor score after pretreatment,"[2]; alaproclate 60 mg/kg i.p., 30 min after physostigmine 200 μg/kg s.c.","0,7"

# Reference: US4469707A, “Method for treatment of senile dementia” (Astra Lakemedel Aktiebolag, priority 1983, dated 1984)
